The NIST ThermoML archive (doi:10.1016/j.tca.2016.08.008)
± gives the expanded uncertainty stated by the source.

Experiment: molar heat capacity at constant pressure
Conditions: 101.33 kPa, Metastable crystal, Small sample (50 mg) DSC

O=P([O-])([O-])[O-].[Tb+3] [terbium orthophosphate]
Conditions | molar heat capacity at constant pressure [J/K/mol]
683.9 K | 136.8 ± 3.4
688.9 K | 136.9 ± 3.4
693.9 K | 137.1 ± 3.4
698.9 K | 137.5 ± 3.4
700 K | 139.9 ± 4.6
703.9 K | 138 ± 3.4
708.9 K | 138.4 ± 3.4
713.9 K | 138.9 ± 3.4
718.9 K | 139.3 ± 3.4
720 K | 140.4 ± 4.7
723.9 K | 139.1 ± 3.4
728.9 K | 139.3 ± 3.4
733.9 K | 139.2 ± 3.4
738.9 K | 139.5 ± 3.4
740 K | 140.8 ± 4.7
743.9 K | 139.8 ± 3.4
748.9 K | 140.3 ± 3.4
753.9 K | 140.6 ± 3.4
758.9 K | 141.1 ± 3.5
760 K | 141.2 ± 4.7
763.9 K | 141.3 ± 3.5
768.9 K | 141.7 ± 3.5
773.9 K | 141.7 ± 3.5
778.9 K | 141.7 ± 3.5
780 K | 141.6 ± 4.7
783.9 K | 141.5 ± 3.5
788.9 K | 141.5 ± 3.5
793.9 K | 141.8 ± 3.5
798.9 K | 142.4 ± 3.5
800 K | 142 ± 4.7
803.9 K | 142.5 ± 3.5
808.9 K | 142.6 ± 3.5
813.9 K | 142.7 ± 3.5
818.9 K | 143.1 ± 3.5
820 K | 142.4 ± 4.7
823.9 K | 143 ± 3.5
828.9 K | 142.9 ± 3.5
833.9 K | 143.1 ± 3.5
838.9 K | 142.9 ± 3.5
840 K | 142.7 ± 4.7
843.9 K | 143.2 ± 3.5
848.9 K | 142.9 ± 3.5
853.9 K | 142.8 ± 3.5
858.9 K | 142.7 ± 3.5
860 K | 143 ± 4.7
863.9 K | 142.4 ± 3.5
868.9 K | 142 ± 3.5
873.9 K | 141.5 ± 3.5
878.9 K | 141.9 ± 3.5
880 K | 143.3 ± 4.8
883.9 K | 141.8 ± 3.5
888.9 K | 141.7 ± 3.5
893.9 K | 141.6 ± 3.5
898.9 K | 141.8 ± 3.5
900 K | 143.6 ± 4.8
903.9 K | 141.5 ± 3.5
908.9 K | 141.4 ± 3.5
913.9 K | 141.7 ± 3.5
918.9 K | 141.8 ± 3.5
920 K | 143.8 ± 4.8
923.9 K | 142.1 ± 3.5
928.9 K | 142.7 ± 3.5
933.9 K | 143 ± 3.5
938.9 K | 142.9 ± 3.5
940 K | 144 ± 4.8
943.9 K | 142.4 ± 3.5
948.9 K | 142.6 ± 3.5
953.9 K | 142.6 ± 3.5
958.9 K | 143.1 ± 3.5
960 K | 144.3 ± 4.8
963.9 K | 142.7 ± 3.5
968.9 K | 142.8 ± 3.5
973.9 K | 142.8 ± 3.5
978.9 K | 142.6 ± 3.5
980 K | 144.5 ± 4.8
983.9 K | 142.5 ± 3.5
988.9 K | 142.5 ± 3.5
993.9 K | 142.6 ± 3.5
998.9 K | 142.9 ± 3.5
1000 K | 144.7 ± 4.8
1003.9 K | 143 ± 3.5
1008.9 K | 143.3 ± 3.5
1009 K | 144.8 ± 4.8
